According to PMC4541799 (Journal of ethnopharmacology, 2015):
Converted amounts (≈) assume the structure as drawn.

How the values were obtained:
[1] = system: SCC2095 (oral squamous cell carcinoma cell line); assay: Anti-proliferation MTT assay in SCC2095 cell line; assay type: cell-based, human
[2] = system: SCC2095 cells; assay: Cellular uptake / intracellular accumulation in SCC2095 cells; assay type: in vitro ADME, human; details: SCC2095 cells incubated with GS409, at different incubation time (2 or 4 hours)
[3] = system: Caco-2 cell monolayer; assay: Transport study in Caco-2 cell culture model; assay type: in vitro ADME, human; details: translated from Caco-2 permeability; ref Artursson & Karlsson, 1991
[4] = SCC2095 cell line, MTT, 48 hours incubation

O=c1[nH]cc(F)c(=O)[nH]1 [5-Fu (positive control), reference compound]
IC50 [1, 4]: 28.61 µg/mL (≈ 220 µM)

CC1(C)O[C@H]2CC(=O)OC[C@@]23C1=C(O)C(=O)[C@]1(C)[C@@H]3CC[C@@]2(C)[C@H](c3ccoc3)OC(=O)[C@H]3O[C@]321 [Evodol, evodol]
IC50 [1, 4]: >100 µg/mL

CC1=C2C(=O)O[C@@H](c3ccoc3)[C@]2(C)CCC1 [Fraxinellone, fraxinellone]
intracellular accumulation among the 9 components [2]: relatively high
absorption in the human intestine following oral administration [3]: more than 70%
IC50 ([1]; Homo sapiens, 48 h): 28.6 µg/mL (≈ 123 µM)

CC1(C)O[C@H]2CC(=O)OC[C@]23[C@H]2CC[C@@]4(C)[C@H](c5ccoc5)OC(=O)[C@H]5O[C@]54[C@]2(C)C(=O)C[C@@H]13 [Limonin, limonin]
IC50 ([1]; Homo sapiens, 48 h): > 100 µg/mL

Oc1ccc2c(c1)OC[C@H]1c3cc4c(cc3O[C@@H]21)OCO4 [Maackiain, maackiain]
intracellular accumulation among the 9 components [2]: relatively high
IC50 ([1]; Homo sapiens, 48 h): 86.3 µg/mL (≈ 304 µM)

O=C1CCC[C@@H]2[C@H]3CCCN4CCC[C@@H](CN12)[C@@H]34 [Matrine, matrine]
IC50 ([1]; Homo sapiens, 48 h): > 100 µg/mL

CC1(C)OC(=O)C=C[C@]2(C)[C@H]3CC[C@@]4(C)[C@H](c5ccoc5)OC(=O)[C@H]5O[C@]54[C@]3(C)C(=O)C[C@@H]12 [Obacunone, obacunone]
IC50 ([1]; Homo sapiens, 48 h): > 100 µg/mL

CC1(C)O[C@H]2CC(=O)OC[C@]23[C@H]2CC[C@@]4(C)[C@H](c5ccoc5)OC(=O)[C@H]5O[C@]54[C@]2(C)[C@@H](O)C(=O)[C@@H]13 [Rutaevine, rutaevine]
IC50 [1, 4]: >100 µg/mL

OC[C@H]1O[C@@H](Oc2ccc3c(c2)OC[C@H]2c4cc5c(cc4O[C@@H]32)OCO5)[C@H](O)[C@@H](O)[C@@H]1O [Trifolirhizin, trifolirhizin]
IC50 ([1]; Homo sapiens, 48 h): > 100 µg/mL
